Laboratory results published in paper PMC10866072, “Design, synthesis, molecular modelling and biological evaluation of novel 6-amino-5-cyano-2-thiopyrimidine derivatives as potent anticancer agents against leukemia and apoptotic inducers” (Journal of Enzyme Inhibition and Medicinal Chemistry, 2024).

Legend:
[1] = system: CCRF-CEM; format: cell-based; settings: Homo sapiens, one dose 10^-5 M, 48 h
[2] = system: HL-60(TB); format: cell-based; settings: Homo sapiens, one dose 10^-5 M, 48 h
[3] = system: K-562; format: cell-based; settings: Homo sapiens, K562, one dose 10^-5 M, 48 h
[4] = system: MOLT-4; format: cell-based; settings: Homo sapiens, one dose 10^-5 M, 48 h, read-out: % growth
[5] = system: RPMI-8226; format: cell-based; settings: Homo sapiens, one dose 10^-5 M, 48 h
[6] = system: SR; format: cell-based; settings: Homo sapiens, one dose 10^-5 M, 48 h
[7] = system: A549/ATCC; format: cell-based; settings: Homo sapiens, one dose 10^-5 M, 48 h
[8] = system: EKVX; format: cell-based; settings: Homo sapiens, one dose 10^-5 M, 48 h
[9] = system: HOP-62; format: cell-based; settings: Homo sapiens, one dose 10^-5 M, 48 h
[10] = system: HOP-92; format: cell-based; settings: Homo sapiens, one dose 10^-5 M, 48 h
[11] = system: NCI-H226; format: cell-based; settings: Homo sapiens, one dose 10^-5 M, 48 h
[12] = system: NCI-H23; format: cell-based; settings: Homo sapiens, one dose 10^-5 M, 48 h, read-out: % growth
[13] = system: NCI-H460; format: cell-based; settings: Homo sapiens, one dose 10^-5 M, 48 h, read-out: % growth
[14] = system: NCI-H522; format: cell-based; settings: Homo sapiens, one dose 10^-5 M, 48 h
[15] = system: COLO 205; format: cell-based; settings: Homo sapiens, one dose 10^-5 M, 48 h
[16] = system: HCC-2998; format: cell-based; settings: Homo sapiens, one dose 10^-5 M, 48 h
[17] = system: HCT-116; format: cell-based; settings: Homo sapiens, one dose 10^-5 M, 48 h, read-out: % growth
[18] = system: HCT-15; format: cell-based; settings: Homo sapiens, one dose 10^-5 M, 48 h, read-out: % growth
[19] = system: HT29; format: cell-based; settings: Homo sapiens, HT-29, one dose 10^-5 M, 48 h
[20] = system: KM12; format: cell-based; settings: Homo sapiens, one dose 10^-5 M, 48 h
[21] = system: SW-620; format: cell-based; settings: Homo sapiens, one dose 10^-5 M, 48 h
[22] = system: SF-268; format: cell-based; settings: Homo sapiens, one dose 10^-5 M, 48 h, read-out: % growth
[23] = system: SF-295; format: cell-based; settings: Homo sapiens, one dose 10^-5 M, 48 h
[24] = system: SF-539; format: cell-based; settings: Homo sapiens, one dose 10^-5 M, 48 h
[25] = system: SNB-19; format: cell-based; settings: Homo sapiens, one dose 10^-5 M, 48 h, read-out: % growth
[26] = system: U251; format: cell-based; settings: Homo sapiens, U-251, one dose 10^-5 M, 48 h
[27] = system: LOX IMVI; format: cell-based; settings: Homo sapiens, one dose 10^-5 M, 48 h, read-out: % growth
[28] = system: MALME-3M; format: cell-based; settings: Homo sapiens, one dose 10^-5 M, 48 h
[29] = system: M14; format: cell-based; settings: Homo sapiens, one dose 10^-5 M, 48 h
[30] = system: MDA-MB-435; format: cell-based; settings: Homo sapiens, one dose 10^-5 M, 48 h, read-out: % growth
[31] = system: SK-MEL-2; format: cell-based; settings: Homo sapiens, one dose 10^-5 M, 48 h
[32] = system: SK-MEL-28; format: cell-based; settings: Homo sapiens, one dose 10^-5 M, 48 h
[33] = system: SK-MEL-5; format: cell-based; settings: Homo sapiens, one dose 10^-5 M, 48 h, read-out: % growth
[34] = system: UACC-257; format: cell-based; settings: Homo sapiens, one dose 10^-5 M, 48 h
[35] = system: UACC-62; format: cell-based; settings: Homo sapiens, one dose 10^-5 M, 48 h
[36] = system: IGROV1; format: cell-based; settings: Homo sapiens, IGROV-1, one dose 10^-5 M, 48 h, read-out: % growth
[37] = system: OVCAR-3; format: cell-based; settings: Homo sapiens, one dose 10^-5 M, 48 h
[38] = system: OVCAR-4; format: cell-based; settings: Homo sapiens, one dose 10^-5 M, 48 h
[39] = system: OVCAR-5; format: cell-based; settings: Homo sapiens, one dose 10^-5 M, 48 h
[40] = system: OVCAR-8; format: cell-based; settings: Homo sapiens, one dose 10^-5 M, 48 h
[41] = system: NCI/ADR-RES; format: cell-based; settings: Homo sapiens, one dose 10^-5 M, 48 h
[42] = system: SK-OV-3; format: cell-based; settings: Homo sapiens, one dose 10^-5 M, 48 h
[43] = system: 786-0; format: cell-based; settings: Homo sapiens, one dose 10^-5 M, 48 h
[44] = system: A498; format: cell-based; settings: Homo sapiens, one dose 10^-5 M, 48 h
[45] = system: ACHN; format: cell-based; settings: Homo sapiens, one dose 10^-5 M, 48 h
[46] = system: CAKI-1; format: cell-based; settings: Homo sapiens, CAKI-1, 48 h, one dose 10^-5 M, 48 h
[47] = system: RXF 393; format: cell-based; settings: Homo sapiens, RXF 393, 48 h, one dose 10^-5 M, 48 h, read-out: % growth
[48] = system: SN12C; format: cell-based, human; settings: Homo sapiens, one dose 10^-5 M, 48 h
[49] = system: TK-10; format: cell-based; settings: Homo sapiens, one dose 10^-5 M, 48 h
[50] = system: UO-31; format: cell-based; settings: Homo sapiens, UO-31, 48 h, one dose 10^-5 M, 48 h
[51] = system: PC-3; format: cell-based; settings: Homo sapiens, one dose 10^-5 M, 48 h
[52] = system: DU-145; format: cell-based; settings: Homo sapiens, one dose 10^-5 M, 48 h
[53] = system: MCF7; format: cell-based; settings: Homo sapiens, one dose 10^-5 M, 48 h, read-out: % growth
[54] = system: MDA-MB-231/ATCC; format: cell-based; settings: Homo sapiens, one dose 10^-5 M, 48 h
[55] = system: HS 578T; format: cell-based; settings: Homo sapiens; one dose 10^-5 M, 48 h; HS 578T; read-out: % growth
[56] = system: BT-549; format: cell-based; settings: Homo sapiens, one dose 10^-5 M, 48 h
[57] = system: T-47D; format: cell-based; settings: Homo sapiens, T47D, one dose 10^-5 M, 48 h, read-out: % growth
[58] = system: MDA-MB-468; format: cell-based; settings: Homo sapiens, one dose 10^-5 M, 48 h
[59] = system: full NCI 60 cell lines panel; settings: Homo sapiens, 60 cell, 48 h, read-out: Mean % growth

`Nc1nc(S)nc(-c2ccc(Cl)cc2Cl)c1-c1ncn[nH]1` [Compound 5c, 4-Amino-6–(2,4-dichlorophenyl)-5-(1H-1,2,4-triazol-5-yl)pyrimidine-2-thiol] showed a % cell growth at 10 µM [1] of 92.7%, a % growth at 10 µM [2] of 70.9% and a % growth at 10 µM [3] of 98%. The activity at 10 µM [4] was 91.4%, the % growth at 10 µM [5] was 103% and the percent cell growth at 10 µM [6] was 83.2%. For the same molecule, the % growth at 10 µM [7] was 102%, the % cell growth at 10 µM [8] was 50% and the % growth at 10 µM [9] was 93.9%. The % growth at 10 µM [10] was 106%, the % growth at 10 µM [11] was 110% and the activity at 10 µM [12] was 105%. The activity at 10 µM [13] was 108%, the % growth at 10 µM [14] was 88.8% and the % growth at 10 µM [15] was 104%. The % growth at 10 µM [16] was 105%, the activity at 10 µM [17] was 97.8% and the activity at 10 µM [18] was 102%. It also gave a % growth at 10 µM [19] of 102%, a % growth at 10 µM [20] of 103% and a % growth at 10 µM [21] of 102%. The activity at 10 µM [22] was 101%, the % cell growth at 10 µM [23] was 100% and the % growth at 10 µM [24] was 101%. The activity at 10 µM [25] was 97.1%, the % growth at 10 µM [26] was 105% and the activity at 10 µM [27] was 104%. The % growth at 10 µM [28] was 98.2%, the % growth at 10 µM [29] was 98.7% and the activity at 10 µM [30] was 105%. For the same molecule, the % growth at 10 µM [31] was 104%, the % cell growth at 10 µM [32] was 115% and the activity at 10 µM [33] was 94.8%. For the same molecule, the percent cell growth at 10 µM [34] was 112%, the % growth at 10 µM [35] was 95.3% and the activity at 10 µM [36] was 102%. It also gave a % growth at 10 µM [37] of 109%, a % growth at 10 µM [38] of 105% and a percent cell growth at 10 µM [39] of 107%. It also gave a % growth of cells at 10 µM [40] of 103%, a cell growth percent at 10 µM [41] of 106% and a % growth at 10 µM [42] of 94.2%. It also gave a % growth at 10 µM [43] of 90.7%, a % growth at 10 µM [44] of 120% and a % growth at 10 µM [45] of 109%. The % growth at 10 µM [46] was 90.8%, the activity at 10 µM [47] was 110% and the % growth at 10 µM [48] was 107%. It also gave a % cell growth at 10 µM [49] of 114%, a % cell growth at 10 µM [50] of 89.9% and a percent cell growth at 10 µM [51] of 95.8%. The % growth at 10 µM [52] was 112%, the activity at 10 µM [53] was 94.1% and the % growth at 10 µM [54] was 104%. The activity at 10 µM [55] was 98.6%, the % cell growth at 10 µM [56] was 97.3% and the activity at 10 µM [57] was 106%. It also gave a percent cell growth at 10 µM [58] of 104% and an activity at 10 µM [59] of 100%.

With `N=C(NN=Cc1ccc([N+](=O)[O-])cc1)c1c(N)nc(S)nc1-c1ccc(Cl)cc1Cl` [Compound 4o, 4-amino-6–(2,4-dichlorophenyl)-2-mercapto-N'-[(4-nitrophenyl)methylene] pyrimidine-5-carboximidohydrazide] the % cell growth at 10 µM [1] was 106%, the % growth at 10 µM [2] was 103% and the % growth at 10 µM [3] was 95%. The activity at 10 µM [4] was 94%, the % growth at 10 µM [5] was 97.3% and the percent cell growth at 10 µM [6] was 76.8%. It also gave a % growth at 10 µM [7] of 101%, a % cell growth at 10 µM [8] of 98.9% and a % growth at 10 µM [9] of 57%. The % growth at 10 µM [10] was 2.04%, the % growth at 10 µM [11] was 82.1% and the activity at 10 µM [12] was 90.2%. For the same molecule, the activity at 10 µM [13] was 114%, the % growth at 10 µM [14] was 78.5% and the % growth at 10 µM [15] was 115%. It also gave a % growth at 10 µM [16] of 106%, an activity at 10 µM [17] of 85.2% and an activity at 10 µM [18] of 103%. For the same molecule, the % growth at 10 µM [19] was 116%, the % growth at 10 µM [20] was 108% and the % growth at 10 µM [21] was 108%. The activity at 10 µM [22] was 94.9%, the % cell growth at 10 µM [23] was 52.4% and the % growth at 10 µM [24] was 74.7%. For the same molecule, the activity at 10 µM [25] was 74.9%, the % growth at 10 µM [26] was 67% and the activity at 10 µM [27] was 96.5%. It also gave a % growth at 10 µM [28] of 73%, a % growth at 10 µM [29] of 102% and an activity at 10 µM [30] of 108%. For the same molecule, the % growth at 10 µM [31] was 93.4%, the % cell growth at 10 µM [32] was 113% and the activity at 10 µM [33] was 104%. It also gave a percent cell growth at 10 µM [34] of 104%, a % growth at 10 µM [35] of 84.7% and an activity at 10 µM [36] of 94.9%. The % growth at 10 µM [37] was 110%, the % growth at 10 µM [38] was 111% and the percent cell growth at 10 µM [39] was 111%. It also gave a % growth of cells at 10 µM [40] of 98.4%, a cell growth percent at 10 µM [41] of 105% and a % growth at 10 µM [42] of 89.1%. For the same molecule, the % growth at 10 µM [43] was 54.1%, the % growth at 10 µM [44] was 160% and the % growth at 10 µM [45] was 88.8%. It also gave a % growth at 10 µM [46] of 78.8%, an activity at 10 µM [47] of 73% and a % growth at 10 µM [48] of 96.1%. For the same molecule, the % cell growth at 10 µM [49] was 142%, the % cell growth at 10 µM [50] was 98.3% and the percent cell growth at 10 µM [51] was 96.8%. It also gave a % growth at 10 µM [52] of 115%, an activity at 10 µM [53] of 88.2% and a % growth at 10 µM [54] of 77.5%. The activity at 10 µM [55] was 87.1%, the % cell growth at 10 µM [56] was 75.7% and the activity at 10 µM [57] was 95.3%. It also gave a percent cell growth at 10 µM [58] of 90.8% and an activity at 10 µM [59] of 93.5%.
